Assay results reported in publication PMC12769565, “Design, synthesis and biological activity of glycoconjugated ADAMTS5 exosite inhibitors: applications in osteoarthritis and ovarian cancer models” (Scientific Reports, 2025).
≈ marks a conversion by molar mass, not a printed value.

How the values were obtained:
[1] = Solubility determination in PBS by UV-Vis absorbance at 284 nm; type: physicochemical; settings: PBS buffer, aqueous buffer, kinetic from dmso stock, pH 7.4, room temperature, read-out: upper solubility limit
Description: The solubility of compounds 4b and 2 was assessed in PBS at pH 7.4 and room temperature. Stock solutions of the compounds (10 mM in DMSO) were diluted in PBS buffer to achieve final concentrations between 1,000 µM − 12.5 µM. Two-hundred microliters of the proper compound solutions in PBS buffer were added in a 96-well plate, and the absorbance was measured at 284 nm using a SPECTROstar Nano UV-Vis spectrophotometer (220–1,000 nm, Ortenberg, Germany). Analyses were performed in triplicate, and the mean value was calculated for each sample.

HEK293T cells = test: Cell viability MTS assay; type: cell-based, human; settings: 100 µM; 72 h; vs DMSO control
Description: (§1) Cell viability was assessed using CellTiter® 96 Aqueous One Solution Cell Proliferation Assay (Promega, G3582) following the manufacturer’s protocol. The assay is based on the reduction of [3-(4,5-dimethylthiazol-2-yl)-5-(3-carboxymethoxyphenyl)-2-(4-sulfophenyl)-2 H-tetrazolium] (MTS) and phenazine ethosulfate into formazan. Compounds 2 and 4b, GM6001 (Merck, 364206) (10–100 µM), or DMSO control were incubated in 48-well Nunc™ plates (Thermo Fisher Scientific,150687) with HEK293T cells, human non-OA chondrocytes, porcine cartilage explants, or human OA cartilage explants for 72 h. At least 3 independent experiments were carried out with 3 technical replicates each. For experiments involving human samples, independent experiments were carried out on 3 different donors. Absorbance at 490 nm was measured on a SpectraMax i3x Multi-Mode Platform (Molecular Devices). Cell viability was normalized to DMSO controls.

[2] = tested on: human non-OA chondrocytes; test: Cell viability MTS assay; type: cell-based; settings: 72 h, vs DMSO control
Description: Non-OA human chondrocytes were isolated from knee cartilage tissues obtained from the Stanmore BioBank, Institute of Orthopaedics, Royal National Orthopaedic Hospital, Stanmore, UK, from 3 donors following informed consent and approval by the Royal Veterinary College Ethics and Welfare Committee (Institutional approval URN 2012 0048 H) as before.
as §1

[3] = tested on: porcine cartilage explants; test: Cell viability MTS assay; type: cell-based, pig; settings: 100 µM; 72 h; vs DMSO control
Description: Porcine articular cartilage from the joints of 3–9 month old pigs was supplied by a local abattoir within 2 h of slaughter and dissected into small pieces approximately 3 mm long and 3–4 mm wide. Each piece weighed roughly 10 mg. After dissection, the cartilage was allowed to acclimatize for 24 h at 37 °C under 5% CO2 in Dulbecco’s Modified Eagle Medium (DMEM) containing 100 U/ml penicillin, 100 µg/ml streptomycin, 10% fetal bovine serum (FBS).
as §1

[4] = tested on: human OA cartilage explants; test: Cell viability MTS assay; type: cell-based; settings: 100 µM; 72 h; vs DMSO control
Description: Human OA cartilage was obtained from Clatterbridge Hospital, Wirral, UK, following total knee arthroplasty procedures with informed patient consent in full compliance with national and institutional ethical requirements, the United Kingdom Human Tissue Act, and the Declaration of Helsinki (REC 18/WA/0344). Explants (~ 36 mm^3, ~ 40 mg wet volume/weight) from each of 3 donors were placed in one well of a 48-well plate and allowed to rest for 24 h in 1 ml of DMEM containing 10% FBS before use. The medium was replaced, and the cartilage was rested for a further 24 h in 1 ml DMEM at 37 °C before assays.
as §1, with “For experiments involving human samples, independent experiments were carried out on 3 different donors.” left out, “Cell viability was normalized to DMSO controls.” left out

[5] = tested on: A2780 OC cells over-expressing Rab25; test: OC cell migration on cell-derived matrix (pseudopod length, directionality, velocity); type: cell-based; settings: cells on CDM
Description: A2780 OC cells over-expressing Rab25 (A2780-Rab25), generated in G. Mills lab[71], and telomerase-immortalised human fibroblasts (TIFs) were a gift from Jim Norman lab (CRUK Scotland Institute). A2780-Rab25 cells were grown in RPMI media (Gibco), supplemented with 10% (v/v) FBS. TIFs were grown in DMEM, supplemented with 10% FBS. To maintain Rab25 over-expression, A2780-Rab25 cells were selected with 0.4 mg/ml G418 every 10 passages.
CDMs were generated as previously described[72] in 12 well plates. Wells were coated with 0.2% gelatin for 60 min at 37 °C, crosslinked with 1% glutaraldehyde for 30 min at room temperature, quenched with 1 M glycine for 20 min at room temperature and equilibrated in DMEM for 30 min at 37 °C. TIFs (2.5 × 10^5 per well) were seeded for 24 h to achieve confluency and grown in the presence of 50 µg/ml ascorbic acid for 9 days. CDMs were washed with PBS, incubated with extraction buffer (20 mM NH4OH, 0.5% Triton X-100 in PBS with Ca^2+ and Mg^2+) for ~ 2 min, until no intact cells were visible by phase, washed twice with PBS with Ca^2+ and Mg^2+ and treated with 15 µg/ml DNase for 1 h at 37 °C, 5% CO2. CDMs were washed twice with PBS with Ca^2+ and Mg^2+ and stored in PBS with Ca^2+ and Mg^2+ at 4 °C for up to one month.
A2780-Rab25 cells (5 × 10^4 per well) were seeded onto a CDM-coated 12-well plate. Compound 2 was added 4 h after plating. Plates were imaged in a Nikon Inverted Ti eclipse microscope with Oko-lab environmental control chamber with a 10x/NA 0.45 objective. Cells were incubated at 37 °C and 5% CO2, images were acquired every 10 min for 12 h and more than 40 cells per well were quantified per biological replicate. Individual cell migration was manually tracked using MTrack2, a Fiji/ImageJ plugin. The chemotaxis tool plugin in Fiji/Image J (https://ibidi.com/chemotaxis-analysis/171-chemotaxis-and-migration-tool.html) was used to calculate the velocity and directionality of migrating cells.

[6] = tested at 10 or 50 µM, concentration of this value not stated

solubility [1]: 300 µM (≈ 238 µg/mL)
Compound: CCC(C)N(Cc1cn(CCCO[C@@H]2O[C@H](CO)[C@@H](O[C@@H]3O[C@H](CO)[C@H](O)[C@H](O)[C@H]3O)[C@H](O)[C@H]2NC(C)=O)nn1)S(=O)(=O)c1ccc(-c2ccccc2)cc1 (stereo partly drawn) [compound 2, N-((2R,3R,4R,5 S,6R)-2-(3-(4-((N-(sec-butyl)-[1,1’-biphenyl]-4-sulfonamido)methyl)-1H-1,2,3-triazol-1-yl)propoxy)-4-hydroxy-6-(hydroxymethyl)-5-(((2 S,3R,4 S,5R,6R)-3,4,5-trihydroxy-6-(hydroxymethyl)tetrahydro-2 H-pyran-2-yl)oxy)tetrahydro-2 H-pyran-3-yl)acetamide]
inhibition of cell viability (HEK293T cells): Neither 2, nor the broad-spectrum zinc-chelating metalloproteinase inhibitor GM6001[40] had an effect on cell viability | inhibition of cell viability ([2]; 50 µM): No significant effect | inhibition of cell viability ([2]; 100 µM): No significant effect | decrease of cell viability [3]: did not exhibit cytotoxicity | effect on cell viability [4]: no effect on cell viability was observed | velocity of cell migration ([5]; 10 or 50 µM): without affecting | inhibition in directionality of cell migration [5, 6]: 43% | inhibition in pseudopod elongation [5, 6]: 35%
